From patent publication US5532366A, “Heterocyclic amides” (Zeneca Limited, priority 1992, dated 1996)

Target: T1, human leukocyte elastase (HLE) (Homo sapiens, UniProt P08246)
T1 sequence (P08246 30-267): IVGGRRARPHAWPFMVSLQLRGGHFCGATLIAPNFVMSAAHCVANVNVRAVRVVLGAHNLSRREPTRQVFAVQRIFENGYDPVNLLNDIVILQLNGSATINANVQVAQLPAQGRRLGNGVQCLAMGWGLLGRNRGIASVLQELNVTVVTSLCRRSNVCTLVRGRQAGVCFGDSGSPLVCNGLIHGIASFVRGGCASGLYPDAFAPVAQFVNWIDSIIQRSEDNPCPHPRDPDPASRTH
Test: Inhibition of human leukocyte elastase (HLE) on methoxy-succinyl-alanyl-alanyl-prolyl-valine-p-nitroanilide, Ki (Inhibition Measurements)
Type: biochemical
Details: kinetic determination of dissociation constant; substrate methoxy-succinyl-alanyl-alanyl-prolyl-valine-p-nitroanilide
Protocol: The potency of a Compound to act as an inhibitor of human leukocyte elastase (HLE) on the low molecular weight peptide substrate methoxy-succinyl-alanyl-alanyl-prolyl-valine-p-nitroanilide is determined as described in U.S. Pat. No. 4,910,190. The potency of an inhibitor is evaluated by obtaining a kinetic determination of the dissociation constant, Ki, of the complex formed from the interaction of the inhibitor with HLE. If a Compound is found to be a "slow-binding" inhibitor of HLE, special methods of analysis to accurately determine Ki values for the inhibition of HLE are carried out as described in U.S. Pat. No. 4,910,190.

Ki: 44 nM
SMILES: CC(C)C(NC(=O)Cn1ccc2c(=O)n(CC(=O)OCc3ccccc3)c(=O)[nH]c2c1=O)C(=O)C(F)(F)F (stereo not shown) [Example 13]
